According to US5627270A, “Glycosylated steroid derivatives for transport across biological membranes and process for making and using same” (Trustees of Princeton University, priority 1994, dated 1997):
Entries after “also recorded” stand apart in the source; their conditions may differ.

Tests used:
[1] = Enhanced transmucosal delivery of co-administered agents in rat ileum or colon; assay type: in vivo
[2] = rat, in vivo
[3] = rat, in vivo; remark: listed apart in the source
[4] = rat, in vivo; remark: listed apart in the source
[5] = rat, in vivo, 100000 uM
Crithidia fasciculate = conditions: antifungal agent alone; cited from earlier work
[6] = Plasma calcitonin after ileal co-administration in the rat; conditions: absence of 1

With `COC(=O)CC[C@@H](C)[C@H]1CC[C@H]2[C@@H]3[C@H](O[C@H]4O[C@H](CO)[C@@H](O)[C@H](O)[C@H]4O)C[C@@H]4C[C@@H](N)CC[C@]4(C)[C@H]3C[C@H](O[C@H]3O[C@H](CO)[C@@H](O)[C@H](O)[C@H]3O)[C@]12C` [Compound 1, 3β-amino-7α,12α-di(1'α-glucosyl)-5β-cholic acid methyl ester] the “plasma levels of co-administered agents” value [1] was “increase the plasma levels of proteinaceous compounds; also recorded: resembled pharmacokinetic profiles of agents administered intravenously”, the “plasma concentrations of gentamicin versus concentration of 1” value [2] was “increasing plasma concentrations of the gentamicin” and the “plasma calcitonin versus amount of 1” value [3] was “plasma calcitonin levels rise with increasing amounts of 1”. For the same molecule, the “bioavailability of calcitonin” value ([3]; po) was “significant amounts of calcitonin are made available with co-administration of 1”, the “time to almost peak gentamicin levels” value ([4]; 10000 uM) was no more than 10 min and the “ileal bioavailability of gentamicin” value ([4]; 30000 uM) was 19.8%. The “peak plasma levels of vancomycin” value [5] was 15 to 47 µg/mL.
For `CCCCCCCCSCCCCCCCCC(=O)O` [Entry 10-TSA, 10-thiastearic acid], the IC50 (Crithidia fasciculate) is listed as 10 µM.
In the case of calcitonin, the “plasma calcitonin” value [6] is reported as “no appreciable amounts of calcitonin are found in the blood”.
